# From publication PMC11413964, “Discovery of 1,3-disubstituted prop-2-en-1-one derivatives as inhibitors of neutrophilic inflammation via modulation of MAPK and Akt pathways” (Journal of Enzyme Inhibition and Medicinal Chemistry, 2024)
# Assays:
# [1] = tested on: fMLF/cytochalasin B (CB)-activated human neutrophils; assay: Superoxide anion generation (ferricytochrome c reduction) in fMLF/CB-activated human neutrophils; format: cell-based; details: Neutrophil, fMLF/CB stimulation, mean ± SEM (n = 3–5); for inhibition at 10 µM: 10 μM compound
# Protocol: (§1) The study involving neutrophils was approved by the Institutional Review Board of Chang Gung Memorial Hospital under IRB number: 201902217A3 and was conducted in accordance with the principles of the Declaration of Helsinki. Healthy volunteers aged 20–35 years provided signed informed consents for blood collection. Isolation of neutrophils was done using dextran sedimentation, Ficoll-Hypaque density gradient centrifugation, and hypotonic haemolysis. For the anti-inflammatory studies, neutrophils were suspended in Hank’s balanced salt solution (HBSS) containing 1 mM Ca^2+ at a pH of 7.4[72].
# The reduction of ferricytochrome c was utilised to measure the production of SO anions in activated human neutrophils. […] The neutrophils were then stimulated with fMLF (0.1 μM) and CB (1 μg/mL) for 13 min. […] LY294002 was used as a positive control.
# [2] = tested on: fMLF/cytochalasin B (CB)-activated human neutrophils; assay: Elastase release in fMLF/CB-activated human neutrophils; format: cell-based; details: 10 μM compound; cytochalasin B only
# [3] = tested on: p38 MAPK; assay: Immunoblotting of p38 MAPK phosphorylation in fMLF-activated neutrophils; format: cell-based, human; details: 10 μM for 5 min, then fMLF 0.1 μM for 30 s
# Protocol: (§2) Human neutrophils (2.5 × 10^7 cells/mL) were first subjected to DMSO (0.1%, serving as control) or experimental compounds at 37 °C for 5 min. Following this, cells were stimulated with fMLF (0.1 μM) for 30 s. […] Primary antibodies used included those for p38 (1:8000), phospho-p38 (1:3000), JNK (1:3000), phospho-JNK (1:3000), Akt (1:5000), phospho-Akt (Ser-473) (1:2000), ERK (1:8000), phospho-ERK (1:8000), and HRP-linked anti-rabbit IgG, to measure total and phosphorylated forms of MAPK and Akt proteins. The quantitative measurements for all samples were adjusted to correspond with the levels of the total protein present.
# [4] = tested on: fMLF/cytochalasin B (CB)-activated human neutrophils; assay: Elastase release in fMLF/CB-activated human neutrophils; format: cell-based; details: fMLF/CB stimulation, mean ± SEM (n = 3–5); for inhibition at 10 µM: 10 μM compound
# Protocol: as §1
# Neutrophils were subsequently stimulated with fMLF (0.1 μM) and CB (0.5 μg/mL) for 13 min. […] LY294002 was used as a positive control.
# [5] = tested on: Akt; assay: Immunoblotting of Akt phosphorylation in fMLF-activated neutrophils; format: cell-based, human; details: 10 μM for 5 min, then fMLF 0.1 μM for 30 s
# Protocol: as §2
# [6] = tested on: ERK; assay: Immunoblotting of ERK phosphorylation in fMLF-activated neutrophils; format: cell-based, human; details: 10 μM for 5 min, then fMLF 0.1 μM for 30 s
# Protocol: as §2
# [7] = tested on: JNK; assay: Immunoblotting of JNK phosphorylation in fMLF-activated neutrophils; format: cell-based, human; details: 10 μM for 5 min, then fMLF 0.1 μM for 30 s
# Protocol: as §2
# [8] = tested on: fMLF/cytochalasin B (CB)-activated human neutrophils; assay: Superoxide anion generation (ferricytochrome c reduction) in fMLF/CB-activated human neutrophils; format: cell-based; details: 10 μM compound; cytochalasin B only
SMILES,inhibition at 10 µM [1] [%],melting point [°C],"inhibition at 10 µM ([4]; Homo sapiens, Neutrophil) [%]",IC50 [1] [nM],also measured
"CC(C)(C)C(=O)/C=C/c1ccc([N+](=O)[O-])cc1 [Compound 6, (E)-4,4-Dimethyl-1-(4-nitrophenyl)pent-1-en-3-one]",23.3 ± 2.3,125 to 126,,,Induction of elastase release [2]: induced elastase release
"COc1cccc(C(=O)/C=C/c2ccc([N+](=O)[O-])cc2)c1 [Compound 6a, (E)-1-(3-Methoxyphenyl)-3-(4-nitrophenyl)prop-2-en-1-one]",99.69 ± 0.18,132.3 to 133.3,84.5 ± 5.73,1230 ± 270,"Effect on p38 phosphorylation [3]: did not alter the phosphorylation; IC50 ([4]; Homo sapiens, Neutrophil): 1370 nM; IC50 [4]: 2220 ± 120 nM; Effect on Akt phosphorylation [5]: significantly suppressed phosphorylation; Effect on ERK phosphorylation [6]: did not alter the phosphorylation; Effect on JNK phosphorylation [7]: significantly suppressed phosphorylation"
"O=C(/C=C/c1ccc(Cl)cc1)c1ccc(-c2ccccc2)cc1 [Compound 11a, (E)-1-([1,1′-Biphenyl]-4-yl)-3-(4-chlorophenyl)prop-2-en-1-one]",,,,,Induction of superoxide anion production [8]: an inducer rather than an inhibitor
"CC(C)(C)Oc1ccc(/C=C/C(=O)c2ccc[nH]2)cc1 [Compound 13, (E)-3-(4-(tert-Butoxy)phenyl)-1-(1H-pyrrol-2-yl)prop-2-en-1-one]",,116.5 to 118.5,,,Induction of superoxide anion production [8]: induced also SO anion generation; Induction of elastase release [2]: induced elastase release
"CC(C)(C)C(=O)/C=C/c1ccc(Cl)cc1Cl [Compound 15, (E)-1-(2,4-Dichlorophenyl)-4,4-dimethylpent-1-en-3-one]",43 ± 2.78,103 to 104,,,Induction of elastase release [2]: induced elastase release
"Cc1ccc(/C=C/C(=O)C(C)(C)C)cc1F [Compound 18, (E)-1-(3-Fluoro-4-methylphenyl)-4,4-dimethylpent-1-en-3-one]",31.3 ± 4.71,70 to 71,7.77 ± 0.8,,
"COc1cccc(C(=O)/C=C/c2ccccc2Cl)c1 [Compound 18a, (E)-3-(2-Chlorophenyl)-1-(3-methoxyphenyl)prop-2-en-1-one]",47.6 ± 5.41,117,31.3 ± 7.29,,
"COc1ccc(/C=C/C(=O)C(C)(C)C)cc1F [Compound 19, (E)-1-(3-Fluoro-4-methoxyphenyl)-4,4-dimethylpent-1-en-3-one]",2.87 ± 2.8,84.6,3.9 ± 1.68,,
"COc1ccc(/C=C/C(=O)c2ccccc2C)cc1F [Compound 20, (E)-3-(3-Fluoro-4-methoxyphenyl)-1-(o-tolyl)prop-2-en-1-one]",49.8 ± 5.82,69 to 70,10.6 ± 2.28,,
"COc1ccc(C(=O)/C=C/c2ccc(OC)c(F)c2)c(OC)c1 [Compound 21, (E)-1-(2,4-Dimethoxyphenyl)-3-(3-fluoro-4-methoxyphenyl)prop-2-en-1-one]",17.1 ± 3.58,85 to 86,31.6 ± 5.88,,
"COc1ccccc1C(=O)/C=C/c1cccc(Cl)c1 [Compound 21a, (E)-3-(3-Chlorophenyl)-1-(2-methoxyphenyl)prop-2-en-1-one]",89.9 ± 2.38,96 to 98,80.4 ± 4.44,3790 ± 690,"IC50 ([4]; Homo sapiens, Neutrophil): 5630 ± 510 nM"
"COc1ccc(/C=C/C(=O)C(C)(C)C)c(F)c1F [Compound 22, (E)-1-(2,3-Difluoro-4-methoxyphenyl)-4,4-dimethylpent-1-en-3-one]",31.4 ± 3.36,128 to 129,4.84 ± 2.66,,
"COc1ccc(C(=O)/C=C/c2cccc(Cl)c2)cc1 [Compound 22a, (E)-3-(3-Chlorophenyl)-1-(4-methoxyphenyl)prop-2-en-1-one]",65.2 ± 3.73,97 to 99,36.1 ± 6.48,6600 ± 600,
"COc1cc(F)c(/C=C/C(=O)C(C)(C)C)cc1F [Compound 23, (E)-1-(2,5-Difluoro-4-methoxyphenyl)-4,4-dimethylpent-1-en-3-one]",8.1 ± 1.88,131 to 132,2.5 ± 1.53,,
"O=C(/C=C/c1cc(F)cc(F)c1)c1ccc(Cl)cc1 [Compound 23a, (E)-1-(4-Chlorophenyl)-3-(3,5-difluorophenyl)prop-2-en-1-one]",96.04 ± 0.09,123.6 to 124,83 ± 2.64,2030 ± 270,"IC50 ([4]; Homo sapiens, Neutrophil): 2320 ± 260 nM"
"COc1cccc(C(=O)/C=C/c2cc(F)cc(F)c2)c1 [Compound 24a, (E)-3-(3,5-Difluorophenyl)-1-(3-methoxyphenyl)prop-2-en-1-one]",3.12 ± 5.02,95.2 to 97.2,37.1 ± 7.65,,
"COc1ccc(C(=O)/C=C/c2cc(F)cc(F)c2)cc1 [Compound 25a, (E)-3-(3,5-Difluorophenyl)-1-(4-methoxyphenyl)prop-2-en-1-one]",78.2 ± 9.5,154.3 to 155,20.9 ± 3.64,4700 ± 600,
"CC(C)(C)C(=O)/C=C/c1ccc2ccccc2c1 [Compound 26, (E)-4,4-Dimethyl-1-(naphthalen-2-yl)pent-1-en-3-one]",10.6 ± 3.34,117 to 119,,,Induction of elastase release [2]: induced elastase release
"COc1ccc(C(=O)/C=C/c2cc(F)cc(F)c2)cc1OC [Compound 26a, (E)-3-(3,5-Difluorophenyl)-1-(3,4-dimethoxyphenyl)prop-2-en-1-one]",92.4 ± 2.19,132.8 to 134.8,20.2 ± 3.19,1560 ± 270,Effect on p38 phosphorylation [3]: markedly diminished phosphorylation; Effect on Akt phosphorylation [5]: did not affect; Effect on ERK phosphorylation [6]: markedly diminished phosphorylation; Effect on JNK phosphorylation [7]: markedly diminished phosphorylation
"O=C(/C=C/c1ccc2ccccc2n1)c1ccccc1 [Compound 28, (E)-1-Phenyl-3-(quinolin-2-yl)prop-2-en-1-one]",106 ± 1.73,118 to 120,99.1 ± 7.32,1730 ± 70,"IC50 ([4]; Homo sapiens, Neutrophil): 2170 ± 300 nM"
"CC(C)(C)C(=O)/C=C/c1ccc(-c2ccccc2)cc1 [Compound 29, (E)-1-([1,1′-Biphenyl]-4-yl)-4,4-dimethylpent-1-en-3-one]",2.23 ± 0.94,128 to 130,,,Induction of elastase release [2]: induced elastase release
"CCOc1ccccc1C(=O)/C=C/c1ccc(-c2ccccc2)cc1 [Compound 30, (E)-3-([1,1′-Biphenyl]-4-yl)-1-(2-ethoxyphenyl)prop-2-en-1-one]",8.69 ± 2.43,98 to 99,15.8 ± 2.57,,
